Experimental data reported in US4168313A, “Phthalidyl 2-(3'-trifluoromethyl-anilino)-pyridine-3-carboxylate and its salts” (priority 1978, dated 1979).

Columns and labels:
[1] = test system: carraghenine-provoked aedema of the paw of rat; experiment: carraghenine-provoked aedema of the paw of rat (antiinflammatory activity); type: in vivo; details: for % AEDEMA INHIBITION 3 hr / % AEDEMA INHIBITION 4 hr: rat paw, TNA 47 mg/Kg, PTP 69 mg/Kg (equivalent to 47 mg of the acid)
From the text: 1 By means of the test involving the carraghenine-provoked aedema of the paw of rat (Winter, C. A., Proceeding Soc. Exp. Biol. Med., III, 544, 1962) the antiinflammatory activities of phthalidyl 2-(3'-trifluormethylanilino)-pyridine-3-carboxylate (PTP) and 2(3'-trifluormethylanilino) nicotinic acid (TNA), were compared.

gastric epithelium = experiment: method of Goldemberg, ulceration by pylorus ligature (ulcerogenic effect); type: in vivo, Sprague-Dowley rats; details: for ulceration Score: score 0=no hemorrhagic spots to 6=perforated ulcer, control (distilled water) 2.0, mg/Kg: phenylbutazone 75, acid 47, acetylsalicylic acid 200, phthalidyl ester 69; for ulcerogenic effect (in words): summary statement, b45 relative to the respective acid; for ulceration score Increase: increase over control (distilled water) score 2.0, mg/Kg: phenylbutazone 75, acid 47, acetylsalicylic acid 200
Method: 2 To compare the effect on ulcer of the new compound regarding to other antiinflammatory drugs, the method of Goldemberg (ulceration by pylorus ligature) (Arzneim. Forsch. (Drug Res.) 26, 3, 1976) to Sprague-Dowley rats (400-600 g of weight), was performed. The ulceration of the gastric epithelium was observed and evaluated in accordance to the following score; 0=no hemorrhagic spots; 1=some isolated hemorrhagic spots; 2=redness of the gastric epithelium; 3=1 to 5 small ulcers with a diameter greater than 3 mm; 6=perforated ulcer.

oral tolerability = type: in vivo
[2] = background statement; cited from earlier work
[3] = background statement; cited from earlier work; remark: listed apart in the source

SMILES | % AEDEMA INHIBITION 3 hr [1] [%] | % AEDEMA INHIBITION 4 hr [1] [%] | antiinflammatory activity compared with the acid (in words) ([1]; relative to 2(3'-trifluormethylanilino) pyridine-3-carboxylic acid) | anti-inflammatory activity (in words) ([1]; summary statement) | ulceration Score (gastric epithelium) | ulcerogenic effect (in words) (gastric epithelium) | ulcerogenic effect (in words) (gastric epithelium; listed as phthalidyl ester) | oral tolerability (in words) (oral tolerability) | ulceration score Increase (gastric epithelium) | antiinflammatory activity (in words) [2] | ulcer provocation (in words) [3]
O=C1OC(OC(=O)c2cccnc2Nc2cccc(C(F)(F)F)c2)c2ccccc21 (stereo not drawn) [PTP, phthalidyl 2-(3'-trifluormethylanilino)-pyridine-3-carboxylate] | 32 | 37.8 | antiinflammatory activity greater than the acid | anti-inflammatory activity | 2.0 | less ulcerogenic than respective acid | without ulcerogenic effect | orally well tolerated |  |  | 
O=C(O)c1cccnc1Nc1cccc(C(F)(F)F)c1 [TNA, 2(3'-trifluormethylanilino) nicotinic acid] | 25.6 | 31.8 |  |  | 3.3 |  |  |  | 1.3 | relevant antiinflammatory activity | provoke ulcers
CC(=O)Oc1ccccc1C(=O)O [Acetylsalicylic acid] |  |  |  |  | 3.9 |  |  |  | 1.9 |  | 
CCCCC1C(=O)N(c2ccccc2)N(c2ccccc2)C1=O [Phenylbutazone] |  |  |  |  | 4.3 |  |  |  | 2.3 |  | 
